# Key:
# C. auris = assay: microbe, parasite or virus in culture; assay type: cell-based, Candida auris; conditions: 50 μM azoffluxin, Etest
# Description: FIGS. 2A-2E illustrate the above-described screening of the BU-CMD which identified azoffluxin as a fluconazole (FLC) potentiator against C. auris. […] Growth, as determined by optical density at 600 nm (OD600), is plotted in the presence of each CMD compound alone on the y-axis and in combination with FLC on the x-axis. Dotted lines represent 7-median absolute deviations from the median for each condition. […] FIG. 2B depicts the synergistic interactions. […] Growth was measured by the OD600 and normalized to the no drug control (see color bar). The fractional inhibitory concentration index (FICI) was calculated to determine the chemical interaction, with a value below 0.5 indicating synergy. […] FIG. 2D depicts FLC Etest strips in the presence and absence of 50 μM azoffluxin. A total of 1×10^6 C. auris cells were added to YPD agar plates, the E-test strip was added, and plates were incubated at 30° C. for 24 hours prior to imaging. FIG. 2. […] Dose-response assay where a two-fold dilution of azoffluxin was titered starting from 50 μM. Indicated titrations have a background concentration of FLC of 32 μg/mL, 4 μg/mL, 0.25 μg/mL, and 0.5 μg/mL for C. auris Ci6684 (Erg11Y132F), C. albicans (SN95), C. glabrata (BG2) or S. cerevisiae (BY4741), respectively. […] Dose response assays were incubated for 48 hours at 30° C. in RPMI. Growth in each well was plotted by the relative optical density to the respective no drug control (See color bar in FIG. 2B).
# Compound potency was assessed alone by dose response assays or in combination with another compound by dose-response matrixes in 96-well plates, or 384-well, flat-bottom, microtiter plates (Corning) as previously described. Plates were incubated at 30° C. for the indicated time period. Growth was quantified by measuring OD600 and corrected for medium background. All strains were assessed in biological duplicate experiments with technical duplicates. […] For dose-response matrixes fractional inhibitory concentration index at 90% growth inhibition (FICI90) was calculated as previously described. […]
# C. auris B11801 = assay: Kidney fungal burden (CFU) in infected mice; assay type: in vivo; conditions: azoffluxin 10 mg/Kg SC four-times daily + fluconazole 32 mg/Kg IP twice daily, four days
# Description: FIG. 10A depicts mammalian embryonic kidney (293T) cells expressing luciferase used to quantify mammalian cell growth in co-culture. Mammalian cells were seeded in 384-well plates in DMEM medium at 5×10^5 cells/mL overnight. After 24 hours the indicated concentration of compound (⋅ indicates combo treatment concentrations) was added along with 2.5×10^3 cells/mL of C. auris. Co-cultures were incubated for 48 hours at 37° C. and then the luminescence was measured as an output of mammalian cell growth. […] FIG. 10C depicts checkerboard assays performed as described in FIG. 2B with C. auris Clade IV isolate B11801. Relative growth was measured after 24 hours using OD600 and normalized to no-drug control wells (see color bar). The FICI calculated for each checkerboard is shown in the top right of each plot, with values<0.5 indicating synergy. […] Input is the CFU recovered in an aliquot of the fungal suspension use to inoculate mice. […] Fluconazole was administered at 32 mg/Kg IP twice daily and azoffluxin at 10 mg/Kg SC four-times daily. Error bars; SD, n=3 mice/treatment group.
# [1] = tested on: C. auris in co-culture with 293T cells; assay: Co-culture of luciferase-expressing 293T cells with C. auris; assay type: cell-based, Candida auris; conditions: azoffluxin and low fluconazole, 48 hours
# Description: FIG. 10A depicts mammalian embryonic kidney (293T) cells expressing luciferase used to quantify mammalian cell growth in co-culture. Mammalian cells were seeded in 384-well plates in DMEM medium at 5×10^5 cells/mL overnight. After 24 hours the indicated concentration of compound (⋅ indicates combo treatment concentrations) was added along with 2.5×10^3 cells/mL of C. auris. Co-cultures were incubated for 48 hours at 37° C. and then the luminescence was measured as an output of mammalian cell growth. Error represents standard deviation between technical quadruplicates, (***) indicates a p-value<0.001 between 293T cells alone and co-culture growth for each condition. […] FIG. 10C depicts checkerboard assays performed as described in FIG. 2B with C. auris Clade IV isolate B11801. Relative growth was measured after 24 hours using OD600 and normalized to no-drug control wells (see color bar). The FICI calculated for each checkerboard is shown in the top right of each plot, with values<0.5 indicating synergy. FIG. 10D depicts kidney fungal burden (CFU) in mice from each treatment group (n=3) that had been infected with C. auris B11801. […] The significance of differences between combination treatment and treatment with each compound alone was determined by two-tailed unpaired student t-test, (***) p-value<0.001. […]
compound,measurement,setting,value
C=C(C)C[C@@H](O)COc1cc2c(cc1C1(c3cc4c(cc3OC[C@H](O)CC(=C)C)OCO4)C(=O)Nc3cc(F)ccc31)OCO2 [CMLD012336],fluconazole MIC in presence of azoffluxin,C. auris,16 µg/mL
same,reduction of fluconazole MIC,C. auris; solid medium,> 16 fold
same,antifungal activity of fluconazole in mice (kidney CFU),C. auris B11801,markedly increases the antifungal activity of fluconazole
same,rescue of human cells in co-culture (luminescence),[1],dramatic rescue of the human cells

# — patent publication US11773086B2, “Fungal modulators” (TRUSTEES OF BOSTON UNIVERSITY, priority 2020, dated 2023)
